# Columns and labels:
# Ankylosing spondylitis = Ankylosing spondylitis patients: BASRI, Harris hip score, BASDAI, BASFI, ESR, CRP (Example 6); details: for BASDAI: before treatment 6.4 ± 1.8; for BASFI: before treatment 7.3 ± 1.6; for CRP: before treatment 17.6 ± 4.2; for ESR: before treatment 29.4 ± 9.8; for BASRI Staging: before treatment 45 ± 5; for Harris hip score: before treatment 82 ± 6
# Experimental: The first solution was a mixed solution made of sodium chlorite with the concentration of 7.47% and sodium chloride with the concentration of 1.59% with deionized water; the second solution was made of citric acid with the concentration of 16.7% with deionized water. Same volume of solutions were taken out from different vessels with different volume and put into the suitable glass or plastic cups prepared. Allow the solution to mix for 3-5 minutes and then filter the solution with 0.22 μm filter membrane of double-deck, dimethyl sulfoxide was added in the ratio of 1:1. The solution was smeared over the region immediately and repeatedly, once a day for consecutive three weeks. The administration was stopped for a week, and then began the treatment for consecutive three weeks, stop the drug for a week. The medicine was repeated for four cycles. Clean and disinfect the area before administration and conduct local anesthetic 30 minutes before operation. To use corresponding amount of solution according to different regions, varying from 1-10 ml/100 cm^2.
# The subjects consisted of 8 male and 4 female AS patients aged from 18 to 40 years old (average age: 26 years old).
# Mean index: the index of X ray of the hip joints:
# Stage I: suspicious change, local joint space may become narrower, 25 points;
# Stage II: mildly abnormal, joint space becomes narrower obviously, the space>2 mm, 50 points;
# Stage III: moderately abnormal, joint space becomes narrow, and the space <2 mm or the local joint space disappears, articular surfaces <2 mm, 75 points;
# Stage IV: severe abnormal, bone deformation, articular surfaces >2 cm, 100 points.
# If two of the three symptoms, namely, erosion and damage, syndesmophyte formation, arthrokatadysis appear during stage I and II, it should increase a level accordingly. BASRI evaluation was given according to different levels. Harris score: full score is 100 points, including pain degree of hip joints (44 points), function of hip joints (47 points), degree of lower limb malformation (4 points), range of activity of hip joints (5 points). Corresponding scores were given according to degrees. BASFI, BASDAI, ESR, CRP were applied in evaluating disease activity and function.
# [1] = system: GFAP-positive cells (astrocytes), NeuN-positive cells (immature neurons); experiment: NeuN-positive, GFAP-positive and BrdU-positive/GFAP-positive cells in the SVZ region; type: in vivo, Sprague-Dawley rats
# Experimental: Male Sprague-Dawley rats with the age of 12 weeks and weight of 250^˜280 g were used in the experiment after acclimating for a week.
# A middle cerebral artery occlusion model was first established in compliance with the method of Longa E Z et al. (Longa E Z, et al. Reversible middle cerebral artery occlusion without craniectomy in rats. Stroke 20:84-91, 1989). More specifically, 0.36 g/kg of 10% chloral hydrate was administered intraperitoneally to rats which had been fasted for 12 hours (although given free access to water) to anesthetize the rats. Next, a midline incision was made in the neck to expose the right common carotid artery. Then, the internal carotid artery and external carotid artery were separated, the posterior carotid artery, which is a branch of the external carotid artery, and the thyroidea arteria were coagulated and severed, the external carotid artery was ligated at the branch of the lingual artery and maxillary artery, a small puncture was formed in the external carotid artery, 4-0 Nylon suture was passed through the common carotid artery from the puncture, and gradually inserted into the internal carotid artery until there was resistance. The length of the Nylon suture was about 18^˜20 mm from the branch of the common carotid artery. As a result of occluding the middle cerebral artery with Nylon suture, an ischemic state was applied for 2 hours to create a middle cerebral artery occlusion model.
# A cerebral ischemia/reperfusion injury model was established by removing the Nylon suture from the middle cerebral artery of the occlusion model and following reperfusion of blood.
# The first solution was a mixed solution made of sodium chlorite with the concentration of 7.47% and sodium chloride with the concentration of 1.59% with deionized water; the second solution was made of citric acid with the concentration of 16.7% with deionized water. Same volume of solutions were taken out from different vessels with different volumes and mixed up. Allow the solution to mix for 3-5 minutes and dilute it five times with normal saline, and then filter it with 0.22 μm filter membrane of double-deck. The solution was immediately put into injector. The solution was prepared once being used.
# Treatment group (120 rats): A cerebral ischemia/reperfusion injury model was established for the rats already. To administer chlorine dioxide solution everytime that prepared from procedure (3) through carotid artery after the second day the model has established, once a day for total ten days.
# On day 5, 6, 12, 13, 19 and 20 after the model established, 50 mg/kg BrdU was injected intraperitoneally into 30 rats in each group. The rats were autopsied on day 7, 14 and 21 after the model established for preparation of frozen brain sections. The presences of NeuN-positive cells by immunochemical stain, glial fibrillory acidic protein (GFAP)-positive cells by immunochemical stain, and BrdU-Positive/GFAP Positive Cells by double-immunofluorescent stain in the SVZ region were analyzed. NeuN is a marker expressed on the immature neurons which are differentiated from neural stem cells. GFAP is a marker expressed on astrocytes which are also differentiated from neural stem cells.
# The presence of NeuN-positive cells was analyzed using goat anti-NeuN monoclonal antibody. The presence of GFAP-positive cells was analyzed using goat anti-GFAP polyclonal antibody. The presence of BrdU-positive/GFAP-positive cells was analyzed by double-immunofluorescent stain using a combination of primary antibody of mouse anti-rat BrdU monoclonal antibody and secondary antibody of Rho-labeled rabbit anti-mouse antibody, and a combination of primary antibody of goat anti-GFAP polyclonal antibody and secondary antibody of FITC-labeled rabbit anti-goat antibody.
# BRt(%)=(Bt−St)/(Mt−St)×100
# [2] = 12 AS patients, topical with DMSO
# [3] = the sixth month, 12 AS patients, topical with DMSO
# [4] = the third month, 12 AS patients, topical with DMSO
structure (smiles),measurement,setting,value
"[O][Cl+][O-] [chlorine dioxide solution, chlorine dioxide]",time until pain and itch during administration disappear completely,Ankylosing spondylitis; [2],after an hour
same,tolerance,Ankylosing spondylitis; [2],without local or systemic anaphylactic reaction
same,change of BASRI staging of the involved hip joints vs before administration,Ankylosing spondylitis; six months after administration,reduced a level
same,BASDAI,Ankylosing spondylitis; [3],3.0 ± 1.2
same,BASFI,Ankylosing spondylitis; [3],2.9 ± 1.1
same,CRP,Ankylosing spondylitis; [3],1.2 ± 0.6
same,ESR,Ankylosing spondylitis; [3],9.1 ± 6.8
same,BASRI Staging,Ankylosing spondylitis; [3],25 ± 8
same,Harris hip score,Ankylosing spondylitis; [3],32 ± 4
same,BASDAI,Ankylosing spondylitis; [4],3.6 ± 1.5
same,BASFI,Ankylosing spondylitis; [4],3.3 ± 1.4
same,CRP,Ankylosing spondylitis; [4],6.3 ± 3.5
same,ESR,Ankylosing spondylitis; [4],11.8 ± 7.6
same,BASRI Staging,"Ankylosing spondylitis; the third month, 12 AS patients, NaClO2 7.47% + citric acid 16.7% 1:1, DMSO 1:1, smeared once a day, three weeks on/one week off, four cycles",30 ± 6
same,Harris hip score,Ankylosing spondylitis; [4],49 ± 5
same,change of BASRI staging of the involved hip joints vs before administration,Ankylosing spondylitis; three months after administration,reduced half level
same,BRt: GFAP-positive cells in treatment group relative to model group = 100%,[1]; Day 7,148.4%
same,number of GFAP-positive cells in the SVZ (mean±SD),"[1]; Day 7, model group 66.3 ± 21.3, sham 2.5 ± 0.15, diluted solution via carotid artery once a day, ten days",97.2 ± 29.3 No. of cells/mm2
same,BRt: GFAP-positive cells in treatment group relative to model group = 100%,[1]; Day 14,134.3%
same,number of GFAP-positive cells in the SVZ (mean±SD),"[1]; Day 14, model group 58.6 ± 16.5, sham 1.39 ± 0.02",78.2 ± 19.6 No. of cells/mm2
same,BRt: GFAP-positive cells in treatment group relative to model group = 100%,[1]; Day 21,162.4%
same,number of GFAP-positive cells in the SVZ (mean±SD),"[1]; Day 21, model group 27.9 ± 12.4, sham 0",45.3 ± 18.3 No. of cells/mm2
same,presence of NeuN-positive cells (immature neurons),"[1]; treatment group, data not shown",confirmed
same,presence of BrdU-positive/GFAP-positive cells in the SVZ region,"[1]; treatment group, double-immunofluorescent stain, data not shown",confirmed
